This passage reports activity coefficient results from the NIST ThermoML archive (doi:10.1016/j.jct.2013.10.038).

The nature of this data set: activity coefficient (dimensionless); of the first substance listed, at infinite dilution; xn = mol fraction of the nth substance listed. Conditions: 101 kPa, Liquid, Chromatography, x1 = 0.

Numbers after ± are expanded uncertainties.

For the molecule `Cc1ccc(C)cc1` [1,4-dimethylbenzene] + CCCCCCn1cc[n+](C)c1.O=C([O-])C(F)(F)F, the activity coefficient (303.15 K) stood at 4.12 ± 0.43; the activity coefficient (313.15 K) turned out to be 4.18 ± 0.44; the activity coefficient (323.15 K) stood at 4.24 ± 0.45; the activity coefficient (333.15 K) was determined as 4.29 ± 0.45; the activity coefficient (343.15 K) amounted to 4.32 ± 0.45; the activity coefficient (353.15 K) came to 4.42 ± 0.46. Further, where the note is “363.15 K”, the activity coefficient was determined as 4.43 ± 0.47.
For `CCCO` [propan-1-ol] + CCCCCCn1cc[n+](C)c1.O=C([O-])C(F)(F)F, the activity coefficient came to 0.24 ± 0.04 (313.15 K); 0.25 ± 0.04 (323.15 K); 0.26 ± 0.04 (333.15 K); 0.27 ± 0.04 (343.15 K); 0.29 ± 0.04 (353.15 K); 0.31 ± 0.04 (363.15 K).
For the molecule `Brc1ccccc1` [bromobenzene] + CCCCCCn1cc[n+](C)c1.O=C([O-])C(F)(F)F, the activity coefficient was found to be 2.18 ± 0.23 (303.15 K); 2.2 ± 0.23 (313.15 K); 2.24 ± 0.24 (323.15 K); 2.29 ± 0.24 (333.15 K); 2.32 ± 0.24 (343.15 K); 2.36 ± 0.25 (353.15 K). Further, the activity coefficient (363.15 K) worked out at 2.41 ± 0.25.
As to `C1COCCO1` [1,4-dioxane] + CCCCCCn1cc[n+](C)c1.O=C([O-])C(F)(F)F, the activity coefficient (303.15 K) was 1.91 ± 0.2; the activity coefficient (313.15 K) turned out to be 1.92 ± 0.2; the activity coefficient (323.15 K) is 1.93 ± 0.2; the activity coefficient (333.15 K) came out at 1.94 ± 0.2; the activity coefficient (343.15 K) turned out to be 1.95 ± 0.2; the activity coefficient (353.15 K) was determined as 1.95 ± 0.2. Moreover, under “363.15 K”, the activity coefficient was 1.97 ± 0.21.
For `C1=CCCCC1` [cyclohexene] + CCCCCCn1cc[n+](C)c1.O=C([O-])C(F)(F)F, the activity coefficient (323.15 K) amounted to 9.6 ± 1.
Still for that read-out and setting: under `CCCCCCC` [heptane] + CCCCCCn1cc[n+](C)c1.O=C([O-])C(F)(F)F stands 27 ± 2.8.
For the molecule `C1CCOC1` [tetrahydrofuran] + CCCCCCn1cc[n+](C)c1.O=C([O-])C(F)(F)F, the activity coefficient (303.15 K) came out at 1.95 ± 0.2; the activity coefficient (313.15 K) stood at 1.96 ± 0.21; the activity coefficient (323.15 K) worked out at 1.98 ± 0.21; the activity coefficient (333.15 K) was 2 ± 0.21; the activity coefficient (343.15 K) came out at 2.02 ± 0.21; the activity coefficient (353.15 K) was determined as 2.02 ± 0.21. Also, where the note is “363.15 K”, the activity coefficient came out at 2.05 ± 0.22.
Consider `ClCCl` [dichloromethane] + CCCCCCn1cc[n+](C)c1.O=C([O-])C(F)(F)F, for which the activity coefficient is, setting by setting: (303.15 K) 0.64 ± 0.07; (313.15 K) 0.65 ± 0.07; (323.15 K) 0.67 ± 0.07; (333.15 K) 0.68 ± 0.07; (343.15 K) 0.7 ± 0.07; (353.15 K) 0.72 ± 0.08. Also, the activity coefficient (363.15 K) came out at 0.73 ± 0.08.
As for `CCc1ccccc1` [ethylbenzene] + CCCCCCn1cc[n+](C)c1.O=C([O-])C(F)(F)F, the activity coefficient came to 4.1 ± 0.43 (303.15 K); 4.16 ± 0.44 (313.15 K); 4.22 ± 0.44 (323.15 K); 4.25 ± 0.45 (333.15 K); 4.32 ± 0.45 (343.15 K); 4.34 ± 0.46 (353.15 K). Moreover, the activity coefficient (363.15 K) worked out at 4.36 ± 0.46.
Consider `CCCCCCCC` [octane] + CCCCCCn1cc[n+](C)c1.O=C([O-])C(F)(F)F, for which the activity coefficient (323.15 K) was found to be 49.6 ± 5.2.
Regarding `CCO` [ethanol] + CCCCCCn1cc[n+](C)c1.O=C([O-])C(F)(F)F, the activity coefficient is 0.21 ± 0.03 (303.15 K); 0.22 ± 0.03 (313.15 K); 0.22 ± 0.03 (323.15 K); 0.23 ± 0.04 (333.15 K); 0.24 ± 0.04 (343.15 K); 0.26 ± 0.04 (353.15 K). Moreover, the activity coefficient (363.15 K) amounted to 0.27 ± 0.04.
With `CC#N` [acetonitrile] + CCCCCCn1cc[n+](C)c1.O=C([O-])C(F)(F)F, the activity coefficient by setting is: (303.15 K) 1.01 ± 0.1; (313.15 K) 1.05 ± 0.11; (323.15 K) 1.11 ± 0.11; (333.15 K) 1.16 ± 0.12; (343.15 K) 1.22 ± 0.13; (353.15 K) 1.28 ± 0.13. Besides, the activity coefficient (363.15 K) turned out to be 1.32 ± 0.14.
As to `c1ccccc1` [benzene] + CCCCCCn1cc[n+](C)c1.O=C([O-])C(F)(F)F, the activity coefficient is, setting by setting: (303.15 K) 2.05 ± 0.22; (313.15 K) 2.07 ± 0.22; (323.15 K) 2.09 ± 0.22; (333.15 K) 2.1 ± 0.22; (343.15 K) 2.12 ± 0.22; (353.15 K) 2.13 ± 0.22. Besides, the activity coefficient (363.15 K) worked out at 2.14 ± 0.22.
`Cc1cccc(C)c1` [1,3-dimethylbenzene] + CCCCCCn1cc[n+](C)c1.O=C([O-])C(F)(F)F: the activity coefficient runs as follows: (303.15 K) 4.19 ± 0.44; (313.15 K) 4.25 ± 0.45; (323.15 K) 4.34 ± 0.46; (333.15 K) 4.39 ± 0.46; (343.15 K) 4.42 ± 0.46; (353.15 K) 4.53 ± 0.48. Besides, for the setting “363.15 K”, the activity coefficient came to 4.56 ± 0.48.
As to `C1CCCCC1` [cyclohexane] + CCCCCCn1cc[n+](C)c1.O=C([O-])C(F)(F)F, the activity coefficient (323.15 K) is 16.9 ± 1.8.
`CC(C)O` [propan-2-ol] + CCCCCCn1cc[n+](C)c1.O=C([O-])C(F)(F)F: the activity coefficient (303.15 K) came out at 0.34 ± 0.04; the activity coefficient (313.15 K) was 0.35 ± 0.04; the activity coefficient (323.15 K) came to 0.36 ± 0.04; the activity coefficient (333.15 K) amounted to 0.38 ± 0.05; the activity coefficient (343.15 K) was 0.39 ± 0.05; the activity coefficient (353.15 K) turned out to be 0.4 ± 0.05. Also, the activity coefficient (363.15 K) came to 0.42 ± 0.05.
Take `CO` [methanol] + CCCCCCn1cc[n+](C)c1.O=C([O-])C(F)(F)F: the activity coefficient was found to be 0.1 ± 0.03 (303.15 K); 0.11 ± 0.03 (313.15 K); 0.12 ± 0.03 (323.15 K); 0.13 ± 0.03 (333.15 K); 0.13 ± 0.03 (343.15 K); 0.16 ± 0.03 (353.15 K). Further, the activity coefficient (363.15 K) stood at 0.16 ± 0.03.
As to `CC(C)CC(C)(C)C` [2,2,4-trimethylpentane] + CCCCCCn1cc[n+](C)c1.O=C([O-])C(F)(F)F, the activity coefficient (323.15 K) is 46.8 ± 4.9.
Consider `Cc1ccccc1C` [1,2-dimethylbenzene] + CCCCCCn1cc[n+](C)c1.O=C([O-])C(F)(F)F, for which the activity coefficient runs as follows: (303.15 K) 3.54 ± 0.37; (313.15 K) 3.67 ± 0.39; (323.15 K) 3.83 ± 0.4; (333.15 K) 3.98 ± 0.42; (343.15 K) 4.1 ± 0.43; (353.15 K) 4.13 ± 0.43. In addition, the activity coefficient (363.15 K) was found to be 4.53 ± 0.48.
As for `C=Cc1ccccc1` [styrene] + CCCCCCn1cc[n+](C)c1.O=C([O-])C(F)(F)F, the activity coefficient by setting is: (303.15 K) 2.28 ± 0.24; (313.15 K) 2.39 ± 0.25; (323.15 K) 2.46 ± 0.26; (333.15 K) 2.53 ± 0.27; (343.15 K) 2.61 ± 0.27; (353.15 K) 2.68 ± 0.28. Also, the activity coefficient (363.15 K) amounted to 2.73 ± 0.29.
With `Cc1ccccc1` [toluene] + CCCCCCn1cc[n+](C)c1.O=C([O-])C(F)(F)F, the activity coefficient is, setting by setting: (303.15 K) 2.97 ± 0.31; (313.15 K) 3.02 ± 0.32; (323.15 K) 3.06 ± 0.32; (333.15 K) 3.1 ± 0.33; (343.15 K) 3.14 ± 0.33; (353.15 K) 3.17 ± 0.33. In addition, under “363.15 K”, the activity coefficient is 3.2 ± 0.34.
